We go through two compounds from article PMC2923755, “Thermolability of mutant MMACHC protein in the vitamin B12-responsive cblC disorder” (Molecular Genetics and Metabolism, 2010).

Changes are numbered by the printed parent chain. Where “and” joins values, the source holds several entries; their conditions need not be identical. Equal entries are not always repeated. Entries after “also recorded” stand apart in the source; their conditions may differ.

For data set [1], the target named is T1, His-MMACHC-R161Q (Homo sapiens, UniProt Q9Y4U1, R161Q).
T1 construct: made in house; host or cells: E. coli BL21 DE3
T1 sequence (Q9Y4U1 1-282 R161Q): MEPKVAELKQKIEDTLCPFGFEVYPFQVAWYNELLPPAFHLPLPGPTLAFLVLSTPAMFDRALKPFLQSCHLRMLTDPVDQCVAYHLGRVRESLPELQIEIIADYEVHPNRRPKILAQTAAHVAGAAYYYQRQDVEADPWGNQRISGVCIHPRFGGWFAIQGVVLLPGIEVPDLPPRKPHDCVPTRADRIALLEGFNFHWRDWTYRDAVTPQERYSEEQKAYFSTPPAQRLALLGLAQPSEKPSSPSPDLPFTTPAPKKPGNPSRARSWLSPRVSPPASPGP
Description: UV-visible absorption spectra, base-on/base-off binding. The note with it: 20 μM CNCbl, pH 7.0.

Data set [2] has as its target T2, GST-MMACHC-wt (Homo sapiens, UniProt Q9Y4U1).
T2 construct: made in house
T2 sequence (Q9Y4U1 1-282): T1 sequence (Q9Y4U1 1-282 R161Q) with Q161R
On the set-up: method as in PMID 19700356. The conditions noted are these: earlier demonstration; cited from earlier work.

In data set [3] the target is T3, MMACHC-R161Q (Homo sapiens, UniProt Q9Y4U1, R161Q).
T3 construct: His-tag (N, cleaved yes); made in house; host or cells: E. coli BL21 DE3
T3 sequence (Q9Y4U1 1-282 R161Q): T1 sequence (Q9Y4U1 1-282 R161Q)
On the set-up: method as in PMID 19700356. The conditions noted are these: cited from earlier work; for cobalamin binding: recombinant protein, in words.

The target in data set [4] is T3, MMACHC-R161Q. Briefly: Differential scanning fluorimetry (DSF), stabilization by cobalamins. Format: binding. The note with it: DSF; for ΔTm max: Tm at 50 μM ligand minus Tm at 0 μM ligand. The procedure: (§1) DSF was performed and analyzed as described in Niesen et al., with minor modifications. Purified MMACHC proteins were diluted to 0.1 mg/ml (3 μM) in buffer (10 mM HEPES pH 7.5, 0.5 M NaCl, 5% glycerol) with 1:1000 Sypro Orange (Invitrogen) and run in triplicate. The proteins were heated from 5 to 75 °C with a ramp rate of 1 °C/min in a thermocycler (Bio-rad C1000 Thermocycler, CFX96 Real-time system). All graphs were normalized so that minimum fluorescence was set to 0 and maximum fluorescence set to 1. […] Final graphs and AC50’s were generated using Kadeidagraph 4.0 software (Synergy Software, Reading, PA). AC50’s were determined by fitting the ΔTm vs. ligand concentration curves to the equation ΔTm = ΔTm max[S]/(AC50 + [S]) where ΔTm is the change in melting temperature (Tm[protein + ligand] − Tm[protein]), ΔTm max is the maximal change in Tm at saturating (50 μM) ligand concentration and [S] is the ligand concentration.
(§2) Wild-type (MMACHC-wt) and mutant (MMACHC-R161Q) MMACHC were expressed and purified to >95% purity, with His-tag removed, as judged by SDS–PAGE (Fig. 2A). In order to investigate the thermostability of MMACHC we used DSF, a method that measures protein stability and ligand-induced changes in stability [[20,21]]. DSF uses an environmentally sensitive dye, such as Sypro orange, to monitor protein-unfolding caused by heat denaturation. As the protein unfolds, the dye, which has a higher fluorescence quantum yield in nonpolar environments than in aqueous media, binds to hydrophobic regions of the protein, causing a large increase in fluorescence [[22,23]]. Protein stability is expressed as the melting point of the protein (Tm), that is, the transition midpoint of the fluorescence curve, corresponding to the temperature at which half of the protein molecules are folded and half are unfolded. […] Even lower was the stability of MMACHC-R161Q (Tm = 37.1 ± 0.7 °C) (Fig. 2B). The difference in Tm was small but nonetheless significant (p < 0.01). A second difference between the wild-type and mutant proteins was the shape of the unfolding curves, with the unfolding of the mutant protein showing high cooperativity indicating a two-state unfolding mechanism while the unfolding of the wild-type protein stretched over a larger temperature range and comprised two phases (Fig. 2B; also Fig. 3A at 0 μM OHCbl).
Background: DSF heats the sample and reads unfolding from a dye or from intrinsic fluorescence.

For data set [5], the target named is T4, MMACHC-wt (Homo sapiens, UniProt Q9Y4U1).
T4 construct: His-tag (N, cleaved yes); made in house; host or cells: E. coli BL21 DE3
T4 sequence (Q9Y4U1 1-282): T1 sequence (Q9Y4U1 1-282 R161Q) with Q161R
Described as above. Format: binding. The conditions noted are these: for ΔTm max: Tm at 50 μM ligand minus Tm at 0 μM ligand. As for the experimental part: as §1, §2

Another data set concerns MMACHC-G147D. On the set-up: method as in PMID 19700356. The conditions noted are these: recombinant protein, in words; cited from earlier work.
Data set [6] addresses T1, His-MMACHC-R161Q. Briefly: UV-visible absorption spectra, base-on/base-off binding. The note with it: 5 μM cobalamin, 50 μM protein, pH 7.0; for α/β-Peak: nm; for γ-Peak: wavelength. The procedure: […] In order to retain the high amounts of protein necessary for these experiments, the His-tag (wt and R161Q) or GST-tag (wt protein) was left on. Absorption spectrum measurements were carried out using a MOS-250 spectrometer and recorded using Bio-Kine 32 v4.20 software.
(§3) In order to determine whether the R161Q mutation interferes with the ability of MMACHC to support this transition, we examined the UV–visible absorption spectra for the proteins bound to AdoCbl, as an example of an alkylcobalamin, as well as for the proteins bound to CNCbl and OHCbl. Each cobalamin was added at a concentration of […] (Fig. 5). To determine whether the cobalamin was base-on or base-off, in the case of CNCbl both base-on and base-off spectra were determined for the free vitamin, as previously reported [[12,14]]. […] Confirming our earlier data, GST-tagged MMACHC-wt bound CNCbl in the base-off state (Table 2). […] Both MMACHC-wt and MMACHC-R161Q bound AdoCbl in the base-off state (Fig. 5; Table 2). […] Finally, neither MMACHC-wt nor MMACHC-R161Q modified OHCbl binding, which retained the base-on profile regardless of the MMACHC species present (Fig. 5; Table 2).

Data set [7] concerns the target T2, GST-MMACHC-wt. The description is as above. The note with it: 5 μM cobalamin, 50 μM protein, pH 7.0; for α/β-Peak: nm; for γ-Peak: wavelength. As for the experimental part:
(§4) To determine base-on or base-off binding, 5 μM of the appropriate cobalamin or cobinamde in buffer (100 mM Tris, pH 7.0), was incubated in the dark with 400 μl total of 50 μM MMACHC protein (wild-type or R161Q), prepared in the same buffer, or alone, for 5 min at room temperature. In order to retain the high amounts of protein necessary for these experiments, the His-tag (wt and R161Q) or GST-tag (wt protein) was left on. Absorption spectrum measurements were carried out using a MOS-250 spectrometer and recorded using Bio-Kine 32 v4.20 software.
as §3

The next data set addresses T5, His-MMACHC-wt (Homo sapiens, UniProt Q9Y4U1).
T5 construct: made in house; host or cells: E. coli BL21 DE3
T5 sequence (Q9Y4U1 1-282): T1 sequence (Q9Y4U1 1-282 R161Q) with Q161R
The description is as above. The note with it: 5 μM cobalamin, 50 μM protein, pH 7.0; for α/β-Peak: nm; for γ-Peak: wavelength. The procedure: as §4, §3

Data set [8] in a line: UV-visible absorption spectra of free cobalamin. The conditions noted are these: for α/β-Peak: nm; for γ-Peak: wavelength. Format: physicochemical. As for the experimental part:
as §4, §3

In data set [9] the target is T4, MMACHC-wt. On the set-up: method as in PMID 19700356. The note with it: published Kd; unit printed in b1 only; cited from earlier work.
Setting [10] is: half-maximal effective ligand concentration for stabilization, 3 μM protein, fit of ΔTm vs ligand concentration.

In the case of Cyanocobalamin [CNCbl], the Base-on/off result was “Off” at His-MMACHC-R161Q [1]; “shifted incompletely towards full base-off binding; also recorded: On/Off” at His-MMACHC-R161Q [6]; “base-off and Off” at GST-MMACHC-wt [7]; “Off” at His-MMACHC-wt. The α/β-Peak at His-MMACHC-R161Q [1] (nm) stood at 531 nm; at His-MMACHC-R161Q [6] it was 540 nm; on GST-MMACHC-wt [7], 530 nm; at His-MMACHC-wt, 531 nm; in [8] (base-off), 529 nm; in [8] (base-on) it was 551 nm. In addition, the γ-Peak amounted to 359 at His-MMACHC-R161Q [1] (wavelength); 359 at His-MMACHC-R161Q [6]; 357 at GST-MMACHC-wt [7]; 358 at His-MMACHC-wt; 355 nm in data set [8] (base-off); 360 nm in data set [8] (base-on). Also, at GST-MMACHC-wt [2], the “binding conformation (base-on/off)” value is on record as “base-off”. Moreover, the Kd – broadly, a measure of binding affinity in units of concentration – at MMACHC-R161Q [3] (published Kd, unit printed in b35 only) is 20 µM. The cobalamin binding result at MMACHC-R161Q [3] is on record as “poorly; also recorded: impaired”; with MMACHC-G147D, “unable to bind”. Besides, the ΔTm max on MMACHC-R161Q [4] is 1 °C and 1.1 ± 0.6 °C; on MMACHC-wt [5] it was 3.4 ± 0.6 °C.

For the compound `C/C1=C2/[N-][C@H]([C@H](CC(N)=O)[C@@]2(C)CCC(=O)NC[C@@H](C)OP(=O)([O-])O[C@H]2[C@@H](O)[C@@H](n3cnc4cc(C)c(C)cc43)O[C@@H]2CO)[C@]2(C)N=C(/C(C)=C3N=C(/C=C4N=C1[C@@H](CCC(N)=O)C\4(C)C)[C@@H](CCC(N)=O)[C@]\3(C)CC(N)=O)[C@@H](CCC(N)=O)[C@]2(C)CC(N)=O.[Co+3].[OH-]` [OHCbl, Hydroxocobalamin], the cobalamin binding result at MMACHC-R161Q [3] was “wild-type affinity”; with MMACHC-G147D, “unable to bind”. The ΔTm max on MMACHC-R161Q [4] was 4 °C and 3.7 ± 0.1 °C; at MMACHC-wt [5] it was 8 °C and 7.9 ± 0.6 °C. Further, the half-maximal activity concentration (AC50) – broadly, the midpoint of the concentration-response curve, whichever way the signal moves – on MMACHC-R161Q [4] (setting [10]) was 7 µM and 6.6 µM; on MMACHC-wt [5] (setting [10]) it was 3 µM. Besides, the Base-on/off entry on His-MMACHC-R161Q [6] is “base-on and On”; on GST-MMACHC-wt [7], “On”; on His-MMACHC-wt, “base-on and On”. The α/β-Peak at His-MMACHC-R161Q [6] is reported as 535 nm; at GST-MMACHC-wt [7] it was 522 nm; at His-MMACHC-wt, 532 nm; in [8] (base-on) it was 525 nm. Also, the γ-Peak at His-MMACHC-R161Q [6] was 354; at GST-MMACHC-wt [7] it was 355; on His-MMACHC-wt, 356; in data set [8] (base-on) it was 350 nm. Moreover, the Kd on MMACHC-wt [9] is 6 µM and 5.7 µM.
